This is an account of results in ChEMBL document CHEMBL1201862, “PubChem BioAssay data set” (2004).

Active and inactive are the calls of the source. A value given as a limit tells only on which side of the number the result lay.

The subject of test [1] is BJ. The experiment in a line: BJ-TERT fibroblast viability loss – cell-based, RAS-independent, luminescence, dose response (AID 1933). Type of test: functional. The conditions noted are these: Homo sapiens.
In test [2] the test system is BJ. The experiment in a line: cells. Format: functional, cell-based. The conditions noted are these: Homo sapiens.
The subject of test [3] is BJ. Kind of test: BJ-TERT-LT-ST fibroblast viability loss – cell-based, RAS-independent, luminescence, dose response (AID 1935).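 Note: BJ fibroblasts immortalized with TERT plus LT and ST oncogenes.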 The settings on record: Homo sapiens. Format: functional.
Test [4] in a line: DRD fibroblast viability loss – cell-based, non-viral oncogenic, luminescence, dose response (AID 1934). Format: functional. The conditions noted are these: Homo sapiens.
A short description of test [5]: THP-1 cell cytotoxicity, dose response, cytotoxicity control for non-replicating M. tuberculosis project (AID 489025). Format: functional.
A further test is described as follows: cells. Type of test: functional.
In another test the target is Genome polyprotein (dengue virus type 2, UniProt P29990). Kind of test: flavivirus cap methylation enzyme inhibition – biochemical, confirmation dose response, primary screen (AID 588689). Format: functional.
In test [6] the target is T1, Long-chain-fatty-acid--AMP ligase FadD28 (Mycobacterium tuberculosis, UniProt P9WQ59).
T1 sequence (P9WQ59 whole entry): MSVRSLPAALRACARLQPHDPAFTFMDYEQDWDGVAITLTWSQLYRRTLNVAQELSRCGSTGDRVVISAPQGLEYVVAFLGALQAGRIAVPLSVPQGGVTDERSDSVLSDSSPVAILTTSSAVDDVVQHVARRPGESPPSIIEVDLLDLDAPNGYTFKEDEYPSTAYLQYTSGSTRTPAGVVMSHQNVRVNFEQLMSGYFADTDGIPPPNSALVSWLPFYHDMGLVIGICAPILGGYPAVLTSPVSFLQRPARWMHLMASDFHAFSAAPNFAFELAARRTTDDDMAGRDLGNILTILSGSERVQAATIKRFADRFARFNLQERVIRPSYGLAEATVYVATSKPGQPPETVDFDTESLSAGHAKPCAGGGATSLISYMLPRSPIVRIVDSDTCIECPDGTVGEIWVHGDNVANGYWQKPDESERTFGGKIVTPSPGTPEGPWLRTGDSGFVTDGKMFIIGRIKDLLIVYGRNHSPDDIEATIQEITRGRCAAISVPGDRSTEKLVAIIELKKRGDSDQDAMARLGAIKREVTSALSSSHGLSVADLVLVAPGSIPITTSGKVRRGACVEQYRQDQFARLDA
Kind of test: Fluorescence polarization aasay to screen for inhibitors that compete for the binding of FadD28 to a bisubstrate Measured in Biochemical System Using Plate Reader - 2147-01_Inhibitor_Dose_CherryPick_Activity. Format: functional, Mycobacterium tuberculosis H37Rv.

Test [7] has as its target T2, Carboxy-terminal domain RNA polymerase II polypeptide A small phosphatase 1 (Homo sapiens, UniProt Q9GZU7).
T2 sequence (Q9GZU7 whole entry): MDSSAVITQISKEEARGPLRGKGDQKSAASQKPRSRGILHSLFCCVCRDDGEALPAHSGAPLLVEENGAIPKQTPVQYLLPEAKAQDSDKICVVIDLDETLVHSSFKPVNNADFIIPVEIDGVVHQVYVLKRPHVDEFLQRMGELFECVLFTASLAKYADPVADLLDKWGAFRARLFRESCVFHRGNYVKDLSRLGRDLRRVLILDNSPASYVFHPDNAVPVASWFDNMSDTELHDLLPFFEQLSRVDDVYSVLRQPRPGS
The experiment in a line: CTDSP1 inhibitors, concentration-response, biochemical, absorbance readout, ultra-high-throughput screen actives (AID 540297). Format: functional.

For a further test, the target named is Kallikrein-7 (Homo sapiens, UniProt P49862). The experiment in a line: Fluorescence Intensity-based biochemical primary high throughput dose response assay to identify activators of kallikrein-7 (K7) zymogen.
The target in test [8] is T3, Corticotropin-releasing factor receptor 2/Corticotropin-releasing factor-binding protein (Homo sapiens, UniProt P24387+Q13324).
T3 sequence (Q13324 whole entry): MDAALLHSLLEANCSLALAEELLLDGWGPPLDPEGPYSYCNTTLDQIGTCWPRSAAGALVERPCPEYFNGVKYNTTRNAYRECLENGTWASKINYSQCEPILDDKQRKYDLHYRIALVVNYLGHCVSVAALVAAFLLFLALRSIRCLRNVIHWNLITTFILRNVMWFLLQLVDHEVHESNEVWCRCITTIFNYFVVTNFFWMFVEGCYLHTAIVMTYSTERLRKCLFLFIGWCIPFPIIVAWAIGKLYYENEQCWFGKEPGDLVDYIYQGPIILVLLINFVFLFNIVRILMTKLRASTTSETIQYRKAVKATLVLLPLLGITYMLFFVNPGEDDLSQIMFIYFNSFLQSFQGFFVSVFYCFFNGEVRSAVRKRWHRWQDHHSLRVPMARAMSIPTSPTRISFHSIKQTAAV
T3 sequence (P24387 whole entry): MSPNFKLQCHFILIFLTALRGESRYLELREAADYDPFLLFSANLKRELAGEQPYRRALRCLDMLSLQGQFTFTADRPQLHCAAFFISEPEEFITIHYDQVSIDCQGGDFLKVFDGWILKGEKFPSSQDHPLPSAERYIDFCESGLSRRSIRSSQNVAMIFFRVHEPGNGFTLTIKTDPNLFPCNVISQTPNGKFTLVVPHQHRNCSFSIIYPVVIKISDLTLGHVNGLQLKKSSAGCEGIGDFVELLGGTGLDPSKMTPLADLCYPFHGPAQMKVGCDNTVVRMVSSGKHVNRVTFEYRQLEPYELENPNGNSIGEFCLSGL
Kind of test: activators of CRF receptor 2 with binding protein – uHTS hits, confirmation (AID 602473). Format: functional. The settings on record: read-out: EC50_Mean.

The nature of test [9]: Luminescence Cell-Based Dose Retest to Confirm Inhibitors of Cancer Stem Cells. [Related pubchem assays (depositor defined):AID2717, AID2721]. Type of test: functional, Homo sapiens. The conditions noted are these: Homo sapiens.
The target of test [10] is T4, Sentrin-specific protease 8 (Homo sapiens, UniProt Q96LD8).
T4 sequence (Q96LD8 whole entry): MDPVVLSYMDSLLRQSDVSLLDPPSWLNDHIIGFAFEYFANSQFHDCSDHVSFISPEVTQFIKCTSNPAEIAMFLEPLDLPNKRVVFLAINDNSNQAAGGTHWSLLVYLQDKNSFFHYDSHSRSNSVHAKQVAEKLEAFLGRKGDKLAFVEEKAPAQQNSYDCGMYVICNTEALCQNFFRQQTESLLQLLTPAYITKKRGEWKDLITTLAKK
Format: functional.

Test [11] in a line: NIH-3T3 fibroblast cytotoxicity, dose response, cytotoxicity control, cell-based, fluorescence, Alamar Blue, secondary assay (AID 2327).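 Note: NIH-3T3 mouse fibroblasts cultured with fluconazole at 8 µg/mL.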 Format: functional. On the technique in general: Alamar Blue is a resazurin reagent that responds to reducing activity.
For another test, the target named is T5, Cytochrome P450 1A2 (Homo sapiens, UniProt P05177).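 Note: PubChem cytochrome P450 panel assay, CYP1A2 panel member.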
T5 sequence (P05177 whole entry): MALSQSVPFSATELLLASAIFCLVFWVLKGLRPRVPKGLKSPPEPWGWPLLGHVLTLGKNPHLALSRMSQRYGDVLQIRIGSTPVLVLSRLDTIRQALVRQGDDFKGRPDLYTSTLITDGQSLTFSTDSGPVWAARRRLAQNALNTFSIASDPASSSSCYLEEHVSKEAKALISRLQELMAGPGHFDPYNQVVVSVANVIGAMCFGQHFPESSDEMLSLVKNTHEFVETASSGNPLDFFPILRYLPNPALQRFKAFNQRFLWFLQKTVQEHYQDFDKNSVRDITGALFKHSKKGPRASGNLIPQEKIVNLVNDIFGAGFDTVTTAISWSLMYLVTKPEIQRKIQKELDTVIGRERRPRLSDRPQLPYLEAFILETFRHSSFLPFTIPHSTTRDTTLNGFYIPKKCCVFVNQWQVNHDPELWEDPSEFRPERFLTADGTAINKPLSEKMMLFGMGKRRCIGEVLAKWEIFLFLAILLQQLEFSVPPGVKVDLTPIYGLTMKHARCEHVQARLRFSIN

The target of another test is Cytochrome P450 2C9 (Homo sapiens, UniProt P11712).
Cytochrome P450 2C9, sequence (P11712 whole entry): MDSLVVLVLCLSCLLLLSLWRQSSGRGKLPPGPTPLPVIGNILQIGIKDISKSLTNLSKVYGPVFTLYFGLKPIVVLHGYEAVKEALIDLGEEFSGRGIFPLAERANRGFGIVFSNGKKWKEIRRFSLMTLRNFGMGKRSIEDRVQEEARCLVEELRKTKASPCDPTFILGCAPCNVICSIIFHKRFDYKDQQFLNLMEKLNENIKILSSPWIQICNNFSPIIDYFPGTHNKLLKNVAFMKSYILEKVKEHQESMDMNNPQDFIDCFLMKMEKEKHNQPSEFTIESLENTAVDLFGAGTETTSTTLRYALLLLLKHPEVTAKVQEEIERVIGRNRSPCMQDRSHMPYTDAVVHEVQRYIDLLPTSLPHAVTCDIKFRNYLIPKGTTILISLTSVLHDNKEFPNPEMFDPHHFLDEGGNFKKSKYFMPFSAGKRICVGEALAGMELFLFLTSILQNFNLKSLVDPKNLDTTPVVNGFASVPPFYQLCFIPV

Kallikrein-7, sequence (P49862 whole entry): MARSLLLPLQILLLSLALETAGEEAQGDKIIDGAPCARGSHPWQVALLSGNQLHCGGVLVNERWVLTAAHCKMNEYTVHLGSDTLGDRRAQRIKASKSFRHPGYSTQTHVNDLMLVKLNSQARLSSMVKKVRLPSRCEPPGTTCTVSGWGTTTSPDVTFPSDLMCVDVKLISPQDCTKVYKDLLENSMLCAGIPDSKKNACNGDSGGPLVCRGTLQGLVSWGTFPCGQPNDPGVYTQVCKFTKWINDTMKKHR
Genome polyprotein, sequence (P29990 2492-3391 limits assumed): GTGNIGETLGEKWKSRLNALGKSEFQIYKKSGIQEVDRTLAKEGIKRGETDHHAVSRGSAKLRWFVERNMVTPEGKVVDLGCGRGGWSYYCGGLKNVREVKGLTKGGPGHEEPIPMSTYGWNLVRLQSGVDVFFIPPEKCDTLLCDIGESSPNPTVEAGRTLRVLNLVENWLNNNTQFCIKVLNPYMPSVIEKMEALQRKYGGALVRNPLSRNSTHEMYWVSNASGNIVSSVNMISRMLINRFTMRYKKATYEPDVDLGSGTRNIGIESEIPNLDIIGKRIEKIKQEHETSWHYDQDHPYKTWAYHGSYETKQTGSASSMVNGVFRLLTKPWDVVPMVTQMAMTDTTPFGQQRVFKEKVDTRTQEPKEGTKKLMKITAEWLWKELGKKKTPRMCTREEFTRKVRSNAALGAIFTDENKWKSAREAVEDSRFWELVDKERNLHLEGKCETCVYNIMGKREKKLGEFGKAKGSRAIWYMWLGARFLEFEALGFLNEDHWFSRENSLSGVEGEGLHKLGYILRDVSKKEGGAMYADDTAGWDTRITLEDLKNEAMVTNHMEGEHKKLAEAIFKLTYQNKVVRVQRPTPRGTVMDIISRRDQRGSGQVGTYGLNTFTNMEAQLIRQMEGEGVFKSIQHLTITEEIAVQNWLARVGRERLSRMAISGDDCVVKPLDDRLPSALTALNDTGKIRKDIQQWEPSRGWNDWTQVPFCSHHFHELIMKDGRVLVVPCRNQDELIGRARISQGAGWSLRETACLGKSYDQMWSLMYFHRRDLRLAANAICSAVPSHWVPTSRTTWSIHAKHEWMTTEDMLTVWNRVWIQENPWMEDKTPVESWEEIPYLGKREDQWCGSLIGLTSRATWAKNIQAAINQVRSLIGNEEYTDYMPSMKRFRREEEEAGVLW

In general, CC50 refers to the concentration at which the toxic effect on the cells reaches its halfway point. Broadly, the IC50 is the concentration that inhibits the measured activity by half. For the compound `CN1C(=O)NC(=O)/C(=C/c2ccc([N+](=O)[O-])s2)C1=O`, the EC50 with BJ [1] was 11.2 µM (active); with BJ [2] it was > 150 µM (not active); in the test on BJ [3], > 150 µM (not active); in test [4] it was > 150 µM (not active). Moreover, in test [5], the CC50 was 33.8 µM (active). For the same compound, the IC50 in the test “cells” was 23.2 µM (active); on Genome polyprotein, 17.4 µM (active). By AC50 is commonly meant the concentration giving half of the maximal activity seen. For `COCCn1c(=S)[nH]c2sc3c(c2c1=O)CCC(C)C3` (stereo unspecified), in test [6], the AC50 is 53.8 µM (active).

As to `CC(C)OCCOc1ccc2oc(-c3ccco3)cc(=O)c2c1`, in [7], the IC50 is 21.7 µM (active). Further, the EC50 at Kallikrein-7 is > 7.72 µM (active). Take `O=C(O)c1cc(Cl)ccc1-c1ccc(/C=C/c2cc(C(F)(F)F)nc(O)n2)o1`: the EC50 in test [8] is 6.29 µM (active). Besides, in test [6], the AC50 is > 100 µM (inactive). With `Cc1nc2ccccc2n1/N=C/c1ccc([N+](=O)[O-])o1`, in [9], the AC50 is 10.9 µM (active). In test [10], the IC50 was 38.4 µM (active).

On to `O=C(NC1CC1)C1CCN(S(=O)(=O)c2cc([N+](=O)[O-])ccc2Cl)CC1`, for which, in test [7], the IC50 is 2.49 µM (active). For the compound `O=C(NNS(=O)(=O)c1ccc(F)cc1)c1cc(Cl)ccc1O`, the AC50 in test [6] is > 100 µM (inactive).

Consider `NS(=O)(=O)c1ccc(NC(=O)C2Cc3ccccc3CN2C(=O)c2ccco2)cc1` (stereo unspecified), for which, in [7], the IC50 is 6.06 µM (active). As for `CC(C)=C1C(=O)NN(c2ccc(F)c(Cl)c2)C1=O`, in [11], the EC50 is > 160 µM (inactive). Besides, the AC50 in test [6] is > 100 µM (inactive); on Cytochrome P450 1A2 it was 31.6 µM (inconclusive); on Cytochrome P450 2C9 it was 20 µM (inconclusive). As to `CCOC(=O)CC1(C)OCC(C[N+]2(C)CCCCC2)O1` (stereo unspecified), the IC50 in [7] was 5.57 µM (active). As to `Cc1cc(C=O)c(C)n1-c1cccc(C(=O)O)c1`, in test [7], the IC50 was 6.32 µM (active). As to `C=C(C)C(=O)N1CC2(CC(c3cccc(NC(=O)/C=C\C=C/C)c3)=NO2)C[C@H]1C(N)=O` (stereo partly specified), the 50% inhibitory concentration (IC50) in [7] was 9.08 µM (active). With `CC(C)(C)NS(=O)(=O)c1ccc(NC(=O)CS(=O)(=O)Cc2ccccc2)cc1`, the AC50 in [6] was > 100 µM (inactive). On to `O=C1N=C(Nc2cccnc2)S/C1=C/c1ccc(F)cc1`, for which the half-maximal inhibitory concentration (IC50) in [7] was 18.4 µM (active).
